Legend:
[1] = test system: SW620 (colorectal adenocarcinoma, metastatic); test: MTT assay, SW620; type: cell-based; details: Homo sapiens, SW-620, 72 h
Method: (§1) The tested compounds were dissolved in DMSO in five, 10-fold dilutions (0.01–100 µM). The cell lines HeLa (cervical carcinoma), SW620 (colorectal adenocarcinoma, metastatic), HepG2 (hepatocellular carcinoma), CFPAC-1 (ductal pancreatic adenocarcinoma), and WI38 (human lung fibroblast cell line), were cultured as monolayers and maintained in Dulbecco’s modified Eagle medium (DMEM) supplemented with 10% fetal bovine serum (FBS), 2 mM L-glutamine, 100 U mL^−1 penicillin and 100 μg mL^−1 streptomycin in a humidified atmosphere with 5% CO2 at 37 °C.
(§2) The MTT assay was used for evaluation of effects of tested compounds on viability of carcinoma and control cell lines. About 5000 cells per well were seeded onto a series of standard 96-well plates on day 0. Test agents were then added and incubated for further 72 h. Working dilutions of tested compounds were freshly prepared in the growth medium, on the day of testing. The solvent (DMSO) was also tested for eventual inhibitory activity by adjusting its concentration to be the same as in the working concentrations (DMSO concentration never exceeded 0.1%). After 72 h of incubation, the cell growth rate was evaluated by performing the MTT assay: experimentally determined absorbance values were transformed into a cell percentage growth (PG) using the formulas proposed by NIH and described previously. This method directly relies on control cells number at the day of assay because it compares the growth of treated cells with the growth of untreated cells in control wells on the same plate, the results are therefore a percentile difference from the calculated expected value.
(§3) If, however, all of the tested concentrations produce PGs exceeding the respective reference level of effect (e.g., PG value of 50) for a given cell line, the highest tested concentration is assigned as the default value (in the screening data report that default value is preceded by a “>” sign). Each test point was performed in quadruplicate in three individual experiments. The results were statistically analyzed (Analysis of variance (ANOVA), Tukey post-hoc test at p < 0.05). Finally, the effects of the tested substances were evaluated by plotting the mean percentage growth for each cell type in comparison to control on dose response graphs.

[2] = test system: CFPAC-1 (ductal pancreatic adenocarcinoma); test: MTT assay, CFPAC-1; type: cell-based; details: Homo sapiens, 72 h
Method: as §1, §2, §3

[3] = test system: HepG2 (hepatocellular carcinoma); test: MTT assay, HepG2; type: cell-based; details: Homo sapiens, 72 h
Method: as §1, §2, §3

[4] = test system: HeLa (cervical carcinoma); test: MTT assay, HeLa; type: cell-based; details: Homo sapiens, 72 h
Method: as §1, §2, §3

[5] = MTT assay, WI38 healthy control; type: cell-based; details: WI38 human lung fibroblast cells, WI38 healthy control human fibroblast cell line
Method: as §1, §2, §3

| IC50 [1] [µM] | IC50 [2] [µM] | IC50 [3] [µM] | IC50 [4] [µM] | IC50 at 72 h [5] [µM] | melting point [°C] | SMILES |
| --- | --- | --- | --- | --- | --- | --- |
| 51.5 | 34.5 | 30.5 | 30.1 | 57.6 | 190 | Cc1c(O)cc(C(C)C)c2oc(-c3ccc(Br)cc3)nc12 [1d, 2-(4-Bromophenyl)-4-methyl-7-isopropyl-1,3-benzoxazole-5-ol] |
| > 100 | 97 | > 100 | > 100 | 75.9 | 178 | COc1ccc(-c2nc3c(C)c(O)cc(C(C)C)c3o2)cc1 [1h, 2-(4-Methoxyphenyl)-4-methyl-7-isopropyl-1,3-benzoxazole-5-ol] |
| 54.9 | > 100 | > 100 | > 100 | 6.21 | 188 | Cc1c(O)cc(C(C)C)c2oc(-c3ccc([N+](=O)[O-])cc3)nc12 [1g, 4-Methyl-2-(4-nitrophenyl)-7-isopropyl-1,3-benzoxazole-5-ol] |
| 55.3 | 40.6 | 4.58 | 6.38 | 9.32 | 168 | COc1cc(-c2nc3c(C)c(O)cc(C(C)C)c3o2)ccc1O [1i, 2-(4-Hydroxy-3-methoxyphenyl)-4-methyl-7-isopropyl-1,3-benzoxazole-5-ol] |
| > 100 | 90.2 | 39.3 | 32.2 | 19.9 | 164 | Cc1c(O)cc(C(C)C)c2oc(-c3ccccc3)nc12 [1a, 4-Methyl-2-phenyl-7-isopropyl-1,3-benzoxazole-5-ol] |
| 43.7 | 31 | 32.3 | 25 | 29.8 | 172 | Cc1c(O)cc(C(C)C)c2oc(-c3ccccc3O)nc12 [1b, 2-(2-Hydroxyphenyl)-4-methyl-7-isopropyl-1,3-benzoxazole-5-ol] |
| 31.6 | 27 | 7.28 | 10.3 | 9.97 | 152 | Cc1c(O)cc(C(C)C)c2oc(-c3cccs3)nc12 [1j, 4-Methyl-7-isopropyl-2-(thiophene-2-yl)-1,3-benzoxazole-5-ol] |
